In patent US8940897B2, “1,3,4-oxadiazole and 1,3,4-thiadiazole β-lactamase inhibitors” (priority 2012, dated 2015):
Structures can show the parent of a compound that is named as a salt.

Key:
[1] = test system: bacterial strains that express the class D cephalosporinase OXA-15; test: Synergy MIC / standard BLI potentiation MIC assay, strains expressing OXA-15;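 also: more active means a lower MIC or sMIC than Avibactam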; assay type: cell-based, E. coli; conditions: in the presence of a β-lactam; comparator Avibactam (CCC)
How it was run: (§1)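 CLSI broth microdilution in CAMHB, ~10^5 CFU/mL, 18–20 h at 37 °C with aeration; engineered E. coli kept on 25 μg/mL tetracycline. Potentiation: β-lactam 128–0.13 μg/mL with BLI fixed at 4 μg/mL; synergy MIC: BLI serially diluted with fixed β-lactam. MIC is the lowest concentration without visible turbidity.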

[2] = test system: bacterial strains that express KPC β-lactamases; test: Synergy MIC / standard BLI potentiation MIC assay, strains expressing KPC β-lactamases; assay type: cell-based; conditions: for at least one KPC strain and/or a better spectrum of activity against KPC strains than Avibactam; in the presence of a β-lactam
How it was run: as §1

| SMILES | activity against bacterial strains that express OXA-15 β-lactamase compared with Avibactam [1] | activity against bacterial strains that express KPC β-lactamase compared with Avibactam [2] |
| --- | --- | --- |
| O=C1N2C[C@@H](CC[C@H]2c2nnc(CCNC3CNC3)o2)N1OS(=O)(=O)O [Compound 745, (2S,5R)-2-(5-(2-(azetidin-3-ylamino)ethyl)-1,3,4-oxadiazol-2-yl)-7-oxo-1,6-diazabicyclo[3.2.1]octan-6-yl hydrogen sulfate] | more active than Avibactam | more active than Avibactam |
| N=C(N)N1CC(NCc2nnc([C@@H]3CC[C@@H]4CN3C(=O)N4OS(=O)(=O)O)o2)C1 [Compound 746, (2S,5R)-2-(5-(((1-carbamimidoylazetidin-3-yl)amino)methyl)-1,3,4-oxadiazol-2-yl)-7-oxo-1,6-diazabicyclo[3.2.1]octan-6-yl hydrogen sulfate] | more active than Avibactam | more active than Avibactam |
| N=C(N)N[C@H]1C[C@@H](c2nnc([C@@H]3CC[C@@H]4CN3C(=O)N4OS(=O)(=O)O)o2)C1 [Compound 749, (2S,5R)-2-(5-((1s,3R)-3-guanidinocyclobutyl)-1,3,4-oxadiazol-2-yl)-7-oxo-1,6-diazabicyclo[3.2.1]octan-6-yl hydrogen sulfate] | more active than Avibactam | more active than Avibactam |
| O=C1N2C[C@@H](CC[C@H]2c2nnc(C3CC4(CNC4)C3)o2)N1OS(=O)(=O)O [Compound 750, (2S,5R)-2-(5-(2-azaspiro[3.3]heptan-6-yl)-1,3,4-oxadiazol-2-yl)-7-oxo-1,6-diazabicyclo[3.2.1]octan-6-yl hydrogen sulfate] | more active than Avibactam | more active than Avibactam |
| N[C@H]1C[C@H](Cc2nnc([C@@H]3CC[C@@H]4CN3C(=O)N4OS(=O)(=O)O)o2)C1 [Compound 751, (2S,5R)-2-(5-(((1r,3S)-3-aminocyclobutyl)methyl)-1,3,4-oxadiazol-2-yl)-7-oxo-1,6-diazabicyclo[3.2.1]octan-6-yl hydrogen sulfate] | more active than Avibactam | more active than Avibactam |
| N=C(N)NC1CC(Cc2nnc([C@@H]3CC[C@@H]4CN3C(=O)N4OS(=O)(=O)O)o2)C1 (stereo partly drawn) [Compound 752, (2S,5R)-2-(5-((3-guanidinocyclobutyl)methyl)-1,3,4-oxadiazol-2-yl)-7-oxo-1,6-diazabicyclo[3.2.1]octan-6-yl hydrogen sulfate] | more active than Avibactam | more active than Avibactam |
| N[C@H]1C[C@H](CCc2nnc([C@@H]3CC[C@@H]4CN3C(=O)N4OS(=O)(=O)O)o2)C1 [Compound 753, (2S,5R)-2-(5-(2-((1r,3R)-3-aminocyclobutyl)ethyl)-1,3,4-oxadiazol-2-yl)-7-oxo-1,6-diazabicyclo[3.2.1]octan-6-yl hydrogen sulfate] | more active than Avibactam | more active than Avibactam |
| N[C@H]1C[C@@H](CCc2nnc([C@@H]3CC[C@@H]4CN3C(=O)N4OS(=O)(=O)O)o2)C1 [Compound 754, (2S,5R)-2-(5-(2-((1s,3S)-3-aminocyclobutyl)ethyl)-1,3,4-oxadiazol-2-yl)-7-oxo-1,6-diazabicyclo[3.2.1]octan-6-yl hydrogen sulfate] | more active than Avibactam | more active than Avibactam |
| NC1CC(NCc2nnc([C@@H]3CC[C@@H]4CN3C(=O)N4OS(=O)(=O)O)o2)C1 (stereo partly drawn) [Compound 755, (2S,5R)-2-(5-(((3-aminocyclobutyl)amino)methyl)-1,3,4-oxadiazol-2-yl)-7-oxo-1,6-diazabicyclo[3.2.1]octan-6-yl hydrogen sulfate] | more active than Avibactam | more active than Avibactam |
| N[C@H]1C[C@@H](NCc2nnc([C@@H]3CC[C@@H]4CN3C(=O)N4OS(=O)(=O)O)o2)C1 [Compound 756, (2S,5R)-2-(5-((((1s,3R)-3-aminocyclobutyl)amino)methyl)-1,3,4-oxadiazol-2-yl)-7-oxo-1,6-diazabicyclo[3.2.1]octan-6-yl hydrogen sulfate] | more active than Avibactam | more active than Avibactam |
| O=C1N2C[C@@H](CC[C@H]2c2nnc([C@H]3CCNC3)o2)N1OS(=O)(=O)O [Compound 758, (2S,5R)-7-oxo-2-(5-((S)-pyrrolidin-3-yl)-1,3,4-oxadiazol-2-yl)-1,6-diazabicyclo[3.2.1]octan-6-yl hydrogen sulfate] | more active than Avibactam | more active than Avibactam |
| O=C1N2C[C@@H](CC[C@H]2c2nnc([C@@H]3CCNC3)o2)N1OS(=O)(=O)O [Compound 759, (2S,5R)-7-oxo-2-(5-((R)-pyrrolidin-3-yl)-1,3,4-oxadiazol-2-yl)-1,6-diazabicyclo[3.2.1]octan-6-yl hydrogen sulfate] | more active than Avibactam | more active than Avibactam |
| N[C@@H]1CN[C@H](c2nnc([C@@H]3CC[C@@H]4CN3C(=O)N4OS(=O)(=O)O)o2)C1 [Compound 760, (2S,5R)-2-(5-((2S,4S)-4-aminopyrrolidin-2-yl)-1,3,4-oxadiazol-2-yl)-7-oxo-1,6-diazabicyclo[3.2.1]octan-6-yl hydrogen sulfate] | more active than Avibactam | more active than Avibactam |
| N[C@H]1CN[C@@H](c2nnc([C@@H]3CC[C@@H]4CN3C(=O)N4OS(=O)(=O)O)o2)C1 [Compound 761, (2S,5R)-2-(5-((2R,4R)-4-aminopyrrolidin-2-yl)-1,3,4-oxadiazol-2-yl)-7-oxo-1,6-diazabicyclo[3.2.1]octan-6-yl hydrogen sulfate] | more active than Avibactam | more active than Avibactam |
| N[C@H]1CN[C@H](c2nnc([C@@H]3CC[C@@H]4CN3C(=O)N4OS(=O)(=O)O)o2)C1 [Compound 762, (2S,5R)-2-(5-((2S,4R)-4-aminopyrrolidin-2-yl)-1,3,4-oxadiazol-2-yl)-7-oxo-1,6-diazabicyclo[3.2.1]octan-6-yl hydrogen sulfate] | more active than Avibactam | more active than Avibactam |
| N[C@@H]1CN[C@@H](c2nnc([C@@H]3CC[C@@H]4CN3C(=O)N4OS(=O)(=O)O)o2)C1 [Compound 763, (2S,5R)-2-(5-((2R,4S)-4-aminopyrrolidin-2-yl)-1,3,4-oxadiazol-2-yl)-7-oxo-1,6-diazabicyclo[3.2.1]octan-6-yl hydrogen sulfate] | more active than Avibactam | more active than Avibactam |
| O=C1N2C[C@@H](CC[C@H]2c2nnc(CC3CCNC3)o2)N1OS(=O)(=O)O (stereo partly drawn) [Compound 764, (2S,5R)-7-oxo-2-(5-(pyrrolidin-3-ylmethyl)-1,3,4-oxadiazol-2-yl)-1,6-diazabicyclo[3.2.1]octan-6-yl hydrogen sulfate] | more active than Avibactam | more active than Avibactam |
| O=C1N2C[C@@H](CC[C@H]2c2nnc(CN[C@H]3CCNC3)o2)N1OS(=O)(=O)O [Compound 765, (2S,5R)-7-oxo-2-(5-(((S)-pyrrolidin-3-ylamino)methyl)-1,3,4-oxadiazol-2-yl)-1,6-diazabicyclo[3.2.1]octan-6-yl hydrogen sulfate] | more active than Avibactam | more active than Avibactam |
| O=C1N2C[C@@H](CC[C@H]2c2nnc(CN[C@@H]3CCNC3)o2)N1OS(=O)(=O)O [Compound 766, (2S,5R)-7-oxo-2-(5-(((R)-pyrrolidin-3-ylamino)methyl)-1,3,4-oxadiazol-2-yl)-1,6-diazabicyclo[3.2.1]octan-6-yl hydrogen sulfate] | more active than Avibactam | more active than Avibactam |
| N=C1NCC(c2nnc([C@@H]3CC[C@@H]4CN3C(=O)N4OS(=O)(=O)O)o2)N1 (stereo partly drawn) [Compound 767, (2S,5R)-2-(5-(2-iminoimidazolidin-4-yl)-1,3,4-oxadiazol-2-yl)-7-oxo-1,6-diazabicyclo[3.2.1]octan-6-yl hydrogen sulfate] | more active than Avibactam | more active than Avibactam |
